≈ marks a conversion by molar mass, not a printed value. Like-named read-outs stand apart in the source and are kept apart here.

One test has as its system N. gonorrhoeae WHO M. The test is described as follows: Liquid broth MIC in Fastidious broth. As to conditions: Neisseria gonorrhoeae.
Another test concerns A. baumannii ATCC 19606. The test is described as follows: microbe, parasite or virus in culture. It is filed as cell-based. The following applies: Acinetobacter baumannii, ATCC19606, read-out: MIC, A. baumannii ATCC 19606.
In a further test the test system is A. baumannii CDC-0083. In words: microbe, parasite or virus in culture. The following applies: Acinetobacter baumannii, CDC0083, read-out: MIC, A. baumannii CDC-0083. It is filed as cell-based.
In test [1] the target is T1, PBP1a from Acinetobacter baumannii (ATCC 19606) (Acinetobacter baumannii, UniProt A0ABX6CK30).
T1 sequence (A0ABX6CK30 1-851): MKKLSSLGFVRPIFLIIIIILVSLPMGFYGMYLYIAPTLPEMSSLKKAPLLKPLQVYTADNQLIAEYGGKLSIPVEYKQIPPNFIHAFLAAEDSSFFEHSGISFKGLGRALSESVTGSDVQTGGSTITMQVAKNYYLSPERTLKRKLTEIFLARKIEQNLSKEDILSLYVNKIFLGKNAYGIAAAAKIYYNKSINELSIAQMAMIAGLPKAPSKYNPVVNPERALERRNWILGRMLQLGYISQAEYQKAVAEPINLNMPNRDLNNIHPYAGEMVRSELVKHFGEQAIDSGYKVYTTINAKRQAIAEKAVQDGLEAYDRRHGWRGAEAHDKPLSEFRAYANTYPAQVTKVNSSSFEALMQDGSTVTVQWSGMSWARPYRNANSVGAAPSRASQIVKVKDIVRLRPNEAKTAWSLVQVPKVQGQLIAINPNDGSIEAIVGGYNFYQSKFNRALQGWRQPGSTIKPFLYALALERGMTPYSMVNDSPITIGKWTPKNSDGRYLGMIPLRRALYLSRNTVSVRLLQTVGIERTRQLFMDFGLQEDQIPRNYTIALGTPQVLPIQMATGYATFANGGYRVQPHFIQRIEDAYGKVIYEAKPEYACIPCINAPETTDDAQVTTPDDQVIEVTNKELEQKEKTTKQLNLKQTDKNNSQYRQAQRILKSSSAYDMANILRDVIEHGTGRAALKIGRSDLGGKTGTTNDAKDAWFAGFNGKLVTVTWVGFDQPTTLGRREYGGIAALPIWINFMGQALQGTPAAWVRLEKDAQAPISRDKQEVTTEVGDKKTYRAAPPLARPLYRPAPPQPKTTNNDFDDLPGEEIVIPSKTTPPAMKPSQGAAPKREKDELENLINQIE
The test is described as follows: Bocillin-FL fluorescence polarization competition binding, A. baumannii PBP1a. As to conditions: fluorescence polarization competition binding assay using Bocillin-FL; read-out: A. baumannii PBP1a Potency. Summed up: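 Purified PBPs pre-incubated with inhibitor (E. coli PBP3 1.5 μM, 30 min; P. aeruginosa PBP3 0.75 μM, A. baumannii PBP1a 1 μM and PBP3 0.2 μM, 15 min), then Bocillin-FL 0.1 μM (0.05 μM for PBP1a) added; FP read up to 60 min. EC50 = concentration halving bound Bocillin-FL.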
In general terms: In fluorescence polarisation assays a small probe gives low polarisation when free and higher when bound to something large.

Another test relates to A. baumannii 1258916. The test is described as follows: microbe, parasite or virus in culture. Format: cell-based, Acinetobacter baumannii. As to conditions: Acinetobacter baumannii, 1258916, read-out: MIC, A. baumannii 1258916.
Another test has as its system N. gonorrhoeae CDC-0197. In words: Liquid broth MIC in Fastidious broth. As to conditions: Neisseria gonorrhoeae.
The test system of the next test is A. baumannii CDC-0033. In words: microbe, parasite or virus in culture. The following applies: Acinetobacter baumannii, CDC0033, read-out: MIC, A. baumannii CDC-0033. Format: cell-based.
The subject of the next test is N. gonorrhoeae WHO X. In words: Liquid broth MIC in Fastidious broth. The following applies: Neisseria gonorrhoeae.
[2] abbreviates: read-out: Minimum Inhibitory Concentration, WHO M.
[3] abbreviates: CDC0197, read-out: Minimum Inhibitory Concentration, CDC-0197.
Setting [4] is: read-out: Minimum Inhibitory Concentration, WHO X.
Setting [5] is: read-out: Minimum Inhibitory Concentration (MIC), N. gonorrhoeae WHO M.
The mark [6] stands for this setting: CDC0197, read-out: Minimum Inhibitory Concentration (MIC), N. gonorrhoeae CDC-0197.
[7] abbreviates: read-out: Minimum Inhibitory Concentration (MIC), N. gonorrhoeae WHO X.

In the case of `O=C(NCCCN1CCN(C(=O)NC(C(=O)N[C@H]2Cc3ccc(F)c(C(=O)O)c3OB2O)c2cc(F)c(O)c(O)c2Cl)C1=O)Nc1cccnc1` (stereo partly drawn) [Example 259, (3R)-3-(2-(2-chloro-5-fluoro-3,4-dihydroxyphenyl)-2-(2-oxo-3-(3-(3-(pyridin-3-yl)ureido)propyl)imidazolidine-1-carboxamido)acetamido)-7-fluoro-2-hydroxy-3,4-dihydro-2H-benzo[e][1,2]oxaborinine-8-carboxylic acid], the MIC in the test on N. gonorrhoeae WHO M (setting [2]) was 4 to 8 µg/mL (≈ 5.47 to 10.9 µM); with A. baumannii ATCC 19606 it was less than 1 µg/mL; in the test on A. baumannii CDC-0083 it was less than 1 µg/mL; with A. baumannii 1258916, less than 1 µg/mL; with N. gonorrhoeae CDC-0197 (setting [3]) it was 16 to 32 µg/mL (≈ 21.9 to 43.7 µM); in the test on A. baumannii CDC-0033 it was 2 to 4 µg/mL (≈ 2.73 to 5.47 µM). For the same molecule, the MIC with N. gonorrhoeae WHO X (setting [4]) was greater than 64 µg/mL. Further, the IC50 in test [1] was greater than 250 µM.
For the molecule `O=C(NCCN1CCN(C(=O)NC(C(=O)N[C@H]2Cc3ccc(F)c(C(=O)O)c3OB2O)c2cc(F)c(O)c(O)c2Cl)C1=O)c1ccncc1` (stereo partly drawn) [Example 245, (3R)-3-(2-(2-chloro-5-fluoro-3,4-dihydroxyphenyl)-2-(3-(2-(isonicotinamido)ethyl)-2-oxoimidazolidine-1-carboxamido)acetamido)-7-fluoro-2-hydroxy-3,4-dihydro-2H-benzo[e][1,2]oxaborinine-8-carboxylic acid], the MIC was 16 to 32 µg/mL (≈ 22.8 to 45.5 µM) in the test with N. gonorrhoeae WHO M (setting [5]); less than 1 µg/mL in the test with A. baumannii ATCC 19606; less than 1 µg/mL in the test on A. baumannii CDC-0083; less than 1 µg/mL in the test on A. baumannii 1258916; greater than 64 µg/mL in the test on N. gonorrhoeae CDC-0197 (setting [6]); 8 to 16 µg/mL (≈ 11.4 to 22.8 µM) in the test on A. baumannii CDC-0033. The MIC in the test on N. gonorrhoeae WHO X (setting [7]) was greater than 64 µg/mL. In test [1], the IC50 was greater than 250 µM.
Turning to `O=C(NCCCN1CCN(C(=O)N[C@H](C(=O)N[C@H]2Cc3ccc(F)c(C(=O)O)c3OB2O)c2cc(F)c(O)c(O)c2Cl)C1=O)c1ccccc1` [Example 252, (R)-3-((S)-2-(3-(3-benzamidopropyl)-2-oxoimidazolidine-1-carboxamido)-2-(2-chloro-5-fluoro-3,4-dihydroxyphenyl)acetamido)-7-fluoro-2-hydroxy-3,4-dihydro-2H-benzo[e][1,2]oxaborinine-8-carboxylic acid], the MIC is greater than 64 µg/mL with N. gonorrhoeae WHO M (setting [2]); greater than 128 µg/mL with A. baumannii ATCC 19606; greater than 128 µg/mL in the test with A. baumannii CDC-0083; greater than 128 µg/mL with A. baumannii 1258916; greater than 64 µg/mL in the test on N. gonorrhoeae CDC-0197 (setting [3]); greater than 128 µg/mL in the test with A. baumannii CDC-0033. The MIC in the test on N. gonorrhoeae WHO X (setting [4]) is greater than 64 µg/mL. Also, in test [1], the IC50 was greater than 250 µM.
For the molecule `O=C(CN1CCN(C(=O)NC(C(=O)N[C@H]2Cc3ccc(F)c(C(=O)O)c3OB2O)c2cc(F)c(O)c(O)c2Cl)C(=O)C1=O)Nc1nccs1` (stereo partly drawn) [Example 235, (3R)-3-(2-(2-chloro-5-fluoro-3,4-dihydroxyphenyl)-2-(2,3-dioxo-4-(2-oxo-2-(thiazol-2-ylamino)ethyl)piperazine-1-carboxamido)acetamido)-7-fluoro-2-hydroxy-3,4-dihydro-2H-benzo[e][1,2]oxaborinine-8-carboxylic acid], the MIC was 4 to 8 µg/mL (≈ 5.53 to 11.1 µM) with N. gonorrhoeae WHO M (setting [5]); less than 1 µg/mL in the test on A. baumannii ATCC 19606; less than 1 µg/mL in the test with A. baumannii CDC-0083; 2 to 4 µg/mL (≈ 2.77 to 5.53 µM) with A. baumannii 1258916; 16 to 32 µg/mL (≈ 22.1 to 44.3 µM) in the test with N. gonorrhoeae CDC-0197 (setting [6]); 8 to 16 µg/mL (≈ 11.1 to 22.1 µM) with A. baumannii CDC-0033. Further, the MIC in the test with N. gonorrhoeae WHO X (setting [7]) was greater than 64 µg/mL. Also, the IC50 in test [1] is greater than 250 µM.
On to `CN(CCN1CCN(C(=O)N[C@@H](C(=O)N[C@H]2Cc3ccc(F)c(C(=O)O)c3OB2O)c2cc(F)c(O)c(O)c2Cl)C(=O)C1=O)Cc1ccc(C(N)=O)cc1` [Example 226, (R)-3-((R)-2-(4-(2-((4-carbamoylbenzyl)(methyl)amino)ethyl)-2,3-dioxopiperazine-1-carboxamido)-2-(2-chloro-5-fluoro-3,4-dihydroxyphenyl)acetamido)-7-fluoro-2-hydroxy-3,4-dihydro-2H-benzo[e][1,2]oxaborinine-8-carboxylic acid], for which the MIC with N. gonorrhoeae WHO M (setting [5]) is 16 to 32 µg/mL (≈ 20.7 to 41.4 µM); with A. baumannii ATCC 19606, less than 1 µg/mL; in the test on A. baumannii CDC-0083, less than 1 µg/mL; in the test on A. baumannii 1258916 it was less than 1 µg/mL; with N. gonorrhoeae CDC-0197 (setting [6]), greater than 64 µg/mL; in the test on A. baumannii CDC-0033 it was 2 to 4 µg/mL (≈ 2.59 to 5.18 µM). For the same molecule, the MIC with N. gonorrhoeae WHO X (setting [7]) is greater than 64 µg/mL. In test [1], the IC50 was greater than 250 µM.
For the molecule `O=C(NCCN1CCN(C(=O)N[C@@H](C(=O)N[C@H]2Cc3ccc(F)c(C(=O)O)c3OB2O)c2cc(F)c(O)c(O)c2Cl)C(=O)C1=O)Nc1cccnc1` [Example 222, (R)-3-((R)-2-(2-chloro-5-fluoro-3,4-dihydroxyphenyl)-2-(2,3-dioxo-4-(2-(3-(pyridin-3-yl)ureido)ethyl)piperazine-1-carboxamido)acetamido)-7-fluoro-2-hydroxy-3,4-dihydro-2H-benzo[e][1,2]oxaborinine-8-carboxylic acid], the MIC with N. gonorrhoeae WHO M (setting [5]) is 4 to 8 µg/mL (≈ 5.36 to 10.7 µM); with A. baumannii ATCC 19606, less than 1 µg/mL; with A. baumannii CDC-0083, 32 to 64 µg/mL (≈ 42.9 to 85.8 µM); with A. baumannii 1258916 it was 2 to 4 µg/mL (≈ 2.68 to 5.36 µM); in the test on N. gonorrhoeae CDC-0197 (setting [6]), greater than 64 µg/mL; in the test on A. baumannii CDC-0033, 2 to 4 µg/mL (≈ 2.68 to 5.36 µM). Besides, the MIC in the test with N. gonorrhoeae WHO X (setting [7]) was greater than 64 µg/mL. Moreover, the IC50 in test [1] is greater than 250 µM.
In the case of `O=C(NCCN1CCN(C(=O)NC(C(=O)N[C@H]2Cc3ccc(F)c(C(=O)O)c3OB2O)c2cc(F)c(O)c(O)c2Cl)C1=O)Nc1ccncc1` (stereo partly drawn) [Example 250, (3R)-3-(2-(2-chloro-5-fluoro-3,4-dihydroxyphenyl)-2-(2-oxo-3-(2-(3-(pyridin-4-yl)ureido)ethyl)imidazolidine-1-carboxamido)acetamido)-7-fluoro-2-hydroxy-3,4-dihydro-2H-benzo[e][1,2]oxaborinine-8-carboxylic acid], the MIC is 16 to 32 µg/mL (≈ 22.3 to 44.6 µM) in the test with N. gonorrhoeae WHO M (setting [2]); less than 1 µg/mL in the test with A. baumannii ATCC 19606; less than 1 µg/mL with A. baumannii CDC-0083; less than 1 µg/mL in the test on A. baumannii 1258916; greater than 64 µg/mL with N. gonorrhoeae CDC-0197 (setting [3]); 2 to 4 µg/mL (≈ 2.79 to 5.57 µM) in the test with A. baumannii CDC-0033. Also, in the test with N. gonorrhoeae WHO X (setting [4]), the MIC was greater than 64 µg/mL. In test [1], the IC50 was greater than 250 µM.
On to `O=C(CN1CCN(C(=O)N[C@@H](C(=O)N[C@H]2Cc3ccc(F)c(C(=O)O)c3OB2O)c2cc(F)c(O)c(O)c2Cl)C(=O)C1=O)NCc1ccncc1` [Example 239, (R)-3-((R)-2-(2-chloro-5-fluoro-3,4-dihydroxyphenyl)-2-(2,3-dioxo-4-(2-oxo-2-((pyridin-4-ylmethyl)amino)ethyl)piperazine-1-carboxamido)acetamido)-7-fluoro-2-hydroxy-3,4-dihydro-2H-benzo[e][1,2]oxaborinine-8-carboxylic acid], for which the MIC was 4 to 8 µg/mL (≈ 5.47 to 10.9 µM) in the test on N. gonorrhoeae WHO M (setting [5]); less than 1 µg/mL with A. baumannii ATCC 19606; less than 1 µg/mL with A. baumannii CDC-0083; less than 1 µg/mL with A. baumannii 1258916; 16 to 32 µg/mL (≈ 21.9 to 43.8 µM) with N. gonorrhoeae CDC-0197 (setting [6]); 8 to 16 µg/mL (≈ 10.9 to 21.9 µM) in the test on A. baumannii CDC-0033. Also, the MIC in the test with N. gonorrhoeae WHO X (setting [7]) is greater than 64 µg/mL. The IC50 in test [1] was greater than 250 µM.
`CN(CCN1CCN(C(=O)N[C@@H](C(=O)N[C@H]2Cc3ccc(F)c(C(=O)O)c3OB2O)c2cc(F)c(O)c(O)c2Cl)C(=O)C1=O)Cc1cccc(C(N)=O)c1` [Example 225, (R)-3-((R)-2-(4-(2-((3-carbamoylbenzyl)(methyl)amino)ethyl)-2,3-dioxopiperazine-1-carboxamido)-2-(2-chloro-5-fluoro-3,4-dihydroxyphenyl)acetamido)-7-fluoro-2-hydroxy-3,4-dihydro-2H-benzo[e][1,2]oxaborinine-8-carboxylic acid]: the MIC in the test with N. gonorrhoeae WHO M (setting [5]) was 16 to 32 µg/mL (≈ 20.7 to 41.4 µM); in the test on A. baumannii ATCC 19606 it was less than 1 µg/mL; in the test on A. baumannii CDC-0083, less than 1 µg/mL; in the test on A. baumannii 1258916 it was less than 1 µg/mL; with N. gonorrhoeae CDC-0197 (setting [6]), 16 to 32 µg/mL (≈ 20.7 to 41.4 µM); with A. baumannii CDC-0033, 2 to 4 µg/mL (≈ 2.59 to 5.18 µM). Further, the MIC in the test with N. gonorrhoeae WHO X (setting [7]) was greater than 64 µg/mL. The IC50 in test [1] was greater than 250 µM.
